Patent publication US10266544B2, “Aryl substituted aminomethyl spectinomycin analogs as antibacterial agents” (ST. JUDE CHILDREN'S RESEARCH HOSPITAL, INC., priority 2013, dated 2019)
Where a name gives a salt, the structure may show the parent alone. Read-outs that look alike come from different tables or passages of the source.

Columns and labels:
Type in all cases: cell-based
[1] = system: Bacillus subtilis (ATCC 23857); assay: MIC determination, microbroth dilution
[2] = system: MRSA, Staphylococcus aureus (NRS70); assay: MIC determination, microbroth dilution; details: Staphylococcus aureus (NRS70); read-out: MIC MRSA
[3] = system: Haemophilus influenza (ATCC 49247); assay: microbe, parasite or virus in culture; details: ATCC49247; Haemophilus influenza; 4 μg per disc; range of at least two experiments; read-out: Zone of inhibition H.i.
[4] = system: Streptococcus pyogenes (ATCC 700294); assay: MIC determination, microbroth dilution
[5] = system: Klebsiella pneumoniae (ATCC 33495); assay: MIC determination, microbroth dilution; details: ATCC33495
[6] = system: Escherichia coli (ATCC 700926); assay: MIC determination, microbroth dilution; details: ATCC700926; Escherichia coli (ATCC 700926); read-out: MIC E.c.
Moraxella catarrhalis = assay: MIC determination (Table 6)
[7] = system: Bacillus anthracis, Sterne 34F2; assay: microbe, parasite or virus in culture; details: STERNE34F2, read-out: MIC B.a.
Listeria monocytogenes = assay: MIC determination (Table 6)
[8] = system: Staphylococcus aureus (ATCC 29213); assay: MIC determination, microbroth dilution; details: ATCC29213; Staphylococcus aureus (ATCC 29213); read-out: MIC S.a.
[9] = system: Streptococcus pneumoniae (R6); assay: MIC determination, microbroth dilution; details: read-out: MIC S. pn.
[10] = system: Neisseria gonorrhoeae (ATCC 49226); assay: Disc diffusion assay; details: ATCC49226, 4 μg per disc, read-out: Zone of inhibition N.g.
[11] = system: Pseudomonas aeruginosa (PA01); assay: MIC determination, microbroth dilution
[12] = system: Burkholderia cepacia (ATCC 25416); assay: MIC determination, microbroth dilution; details: Burkholderia cepacia
[13] = system: Legionella pneumophila (ATCC 33153); assay: microbe, parasite or virus in culture; details: ATCC33153, 72 h, read-out: Zone of inhibition L.p.
[14] = system: Stenotrophomonas maltophilia (ATCC 13637); assay: MIC determination, microbroth dilution
[15] = system: M. tuberculosis clinical isolates; assay: microbe, parasite or virus in culture; details: Mycobacterium tuberculosis
[16] = system: Proteus vulgaris (ATCC 33420); assay: MIC determination, microbroth dilution; details: ATCC33420
E. coli K12 ΔtolC = assay: microbe, parasite or virus in culture; details: Escherichia coli, read-out: MIC E.c. Δtolc
Bacillus anthracis = assay: microbe, parasite or virus in culture; details: read-out: MIC B.a.
[17] = system: Neisseria meningitides (ATCC 13077); assay: Disc diffusion assay; details: ATCC13077, 4 μg per disc, read-out: Zone of inhibition N.m.
[18] = system: acinetobacter baumannii (ATCC 19606); assay: MIC determination, microbroth dilution; details: ATCC19606
[19] = system: Proteus mirabilis (ATCC 25933); assay: MIC determination, microbroth dilution; details: ATCC25933
[20] = ATCC25416, read-out: MIC B.c., Burkholderia cepacia (ATCC 25416)
[21] = ATCC25416, read-out: MIC B.c., Burkholderia cepacia, Table 6
[22] = ATCC23857, Bacillus subtilis (ATCC 23857), read-out: MIC B.s.
[23] = ATCC700294, Streptococcus pyogenes (ATCC 700294), read-out: MIC S. py.
[24] = ATCC13637, Stenotrophomonas maltophilia (ATCC 13637), read-out: MIC S.m.

With `CN[C@@H]1[C@H](O)[C@H](NC)[C@H]2O[C@]3(O)[C@H](O[C@@H]2[C@H]1O)O[C@H](C)C[C@@]3(O)CNCCc1ccc(OC)cc1` [compound 53, 3′-(R)-3′-[(4-methoxy)phenethylaminomethyl]dihydrospectinomycin Trihydrochloride] as the compound, how does the MIC ([1]; Bacillus subtilis, ATCC23857, read-out: MIC B.s.) read?
Its MIC is 12.5 µg/mL.

And the MIC [2]?
Its MIC is 100 µg/mL.

What about the zone of inhibition at 4 µg/disc [3] of the same compound?
Its zone of inhibition at 4 µg/disc is 11 mm.

What about the MIC ([4]; Streptococcus pyogenes, ATCC700294, read-out: MIC S. py.) of the same compound?
Its MIC is 12.5 to 25 µg/mL.

And the MIC [5]?
The MIC was 100 to 200 µg/mL.

And the MIC [6]?
Its MIC is 50 µg/mL.

What about the MIC (Moraxella catarrhalis) of the same compound?
Its MIC is 3.1 µg/mL.

What about the MIC [7] of the same compound?
The MIC was 25 to 50 µg/mL.

And the MIC (Listeria monocytogenes)?
The MIC was 6.3 µg/mL.

And the MIC [8]?
The MIC was 25 µg/mL.

And the MIC ([9]; Streptococcus pneumoniae)?
The MIC was 12.5 µg/mL.

And the zone of inhibition at 4 µg/disc [10]?
Its zone of inhibition at 4 µg/disc is 12 mm.

And the MIC [11]?
Its MIC is > 200 µg/mL.

What about the MIC [12, 20] of the same compound?
Its MIC is > 200 µg/mL.

And the MIC [12, 21]?
Its MIC is > 200 µg/mL.

And the zone of inhibition at 4 µg/disc [13]?
The zone of inhibition at 4 µg/disc was 30 mm.

What about the MIC ([14]; Stenotrophomonas maltophilia, ATCC13637, read-out: MIC S.m.) of the same compound?
Its MIC is 12.5 µg/mL.

And the MIC ([15]; H37RV, read-out: MIC H37Rv)?
Its MIC is 6.3 µg/mL.

And the MIC ([15]; read-out: MIC TN022)?
The MIC was 12.5 µg/mL.

What about the MIC ([15]; read-out: MIC TN026) of the same compound?
Its MIC is 12.5 µg/mL.

And the MIC [16]?
Its MIC is 200 µg/mL.

And the MIC (E. coli K12 ΔtolC)?
The MIC was 12.5 µg/mL.

What about the MIC (Bacillus anthracis) of the same compound?
The MIC was 25 to 50 µg/mL.

And the zone of inhibition at 4 µg/disc [17]?
Its zone of inhibition at 4 µg/disc is 10 mm.

And the MIC [18]?
The MIC was > 200 µg/mL.

And the MIC [19]?
The MIC was > 200 µg/mL.

For `CN[C@@H]1[C@H](O)[C@H](NC)[C@H]2O[C@]3(O)[C@H](O[C@@H]2[C@H]1O)O[C@H](C)C[C@@]3(O)CNCCc1ccc(Cl)cc1` [compound 54, 3′-(R)-3′-[(4-chloro)phenethylaminomethyl]dihydrospectinomycin Trihydrobromide], which MIC [1, 22] is on record?
Its MIC is 25 to 50 µg/mL.

What about the MIC [2] of the same compound?
Its MIC is > 200 µg/mL.

What about the zone of inhibition at 4 µg/disc [3] of the same compound?
The zone of inhibition at 4 µg/disc was 9 mm.

What about the MIC [4, 23] of the same compound?
The MIC was 25 µg/mL.

And the MIC [5]?
Its MIC is > 200 µg/mL.

And the MIC [6]?
Its MIC is 50 to 100 µg/mL.

What about the MIC (Moraxella catarrhalis) of the same compound?
Its MIC is 6.3 µg/mL.

And the MIC [7]?
Its MIC is 200 µg/mL.

What about the MIC (Listeria monocytogenes) of the same compound?
Its MIC is 25 µg/mL.

And the MIC [8]?
The MIC was 100 to 200 µg/mL.

What about the MIC ([9]; Streptococcus pneumoniae (R6)) of the same compound?
Its MIC is 25 µg/mL.

What about the zone of inhibition at 4 µg/disc [10] of the same compound?
The zone of inhibition at 4 µg/disc was 11 mm.

What about the MIC [11] of the same compound?
The MIC was > 200 µg/mL.

And the MIC [12, 20]?
The MIC was > 200 µg/mL.

What about the MIC [12, 21] of the same compound?
The MIC was > 200 µg/mL.

What about the zone of inhibition at 4 µg/disc [13] of the same compound?
The zone of inhibition at 4 µg/disc was 15 mm.

And the MIC [14, 24]?
Its MIC is ≥ 200 µg/mL.

What about the MIC ([15]; H37RV, read-out: MIC H37Rv) of the same compound?
Its MIC is 25 µg/mL.

What about the MIC ([15]; read-out: MIC TN022) of the same compound?
The MIC was 25 µg/mL.

What about the MIC ([15]; read-out: MIC TN026) of the same compound?
Its MIC is 50 µg/mL.

And the MIC [16]?
The MIC was > 200 µg/mL.

And the MIC (E. coli K12 ΔtolC)?
Its MIC is 12.5 to 25 µg/mL.

What about the MIC (Bacillus anthracis) of the same compound?
Its MIC is 200 µg/mL.

And the zone of inhibition at 4 µg/disc [17]?
The zone of inhibition at 4 µg/disc was 7 mm.

And the MIC [18]?
Its MIC is > 200 µg/mL.

What about the MIC [19] of the same compound?
The MIC was > 200 µg/mL.

How did the MIC [1, 22] turn out when `CN[C@@H]1[C@H](O)[C@H](NC)[C@H]2O[C@]3(O)[C@H](O[C@@H]2[C@H]1O)O[C@H](C)C[C@@]3(O)CNCCc1nccs1` [compound 64, 3′-(R)-3′-[((2-(thiazol-2-yl)ethyl)aminomethyl]dihydrospectinomycintetrahydrobromide] was run?
The MIC was 12.5 to 25 µg/mL.

What about the MIC [2] of the same compound?
The MIC was > 200 µg/mL.

What about the zone of inhibition at 4 µg/disc [3] of the same compound?
The zone of inhibition at 4 µg/disc was 11 mm.

What about the MIC [4, 23] of the same compound?
Its MIC is 25 µg/mL.

And the MIC [5]?
Its MIC is 100 to 200 µg/mL.

And the MIC [6]?
The MIC was 50 to 100 µg/mL.

What about the MIC (Moraxella catarrhalis) of the same compound?
Its MIC is 3.1 µg/mL.

And the MIC [7]?
The MIC was 50 µg/mL.

What about the MIC (Listeria monocytogenes) of the same compound?
Its MIC is 12.5 µg/mL.

And the MIC [8]?
The MIC was 50 to 100 µg/mL.

And the MIC ([9]; Streptococcus pneumoniae (R6))?
Its MIC is 12.5 µg/mL.

And the zone of inhibition at 4 µg/disc [10]?
Its zone of inhibition at 4 µg/disc is 8 mm.

What about the MIC [11] of the same compound?
The MIC was > 200 µg/mL.

And the MIC [12, 20]?
Its MIC is > 200 µg/mL.

And the MIC [12, 21]?
The MIC was > 200 µg/mL.

What about the zone of inhibition at 4 µg/disc [13] of the same compound?
Its zone of inhibition at 4 µg/disc is 33 mm.

And the MIC [14, 24]?
The MIC was 25 to 50 µg/mL.

What about the MIC ([15]; H37RV, read-out: MIC H37Rv) of the same compound?
Its MIC is 1.6 µg/mL.

What about the MIC ([15]; read-out: MIC TN022) of the same compound?
Its MIC is 1.6 µg/mL.

What about the MIC ([15]; read-out: MIC TN026) of the same compound?
Its MIC is 1.6 µg/mL.

What about the MIC [16] of the same compound?
Its MIC is > 200 µg/mL.

And the MIC (E. coli K12 ΔtolC)?
The MIC was 25 to 50 µg/mL.

What about the MIC (Bacillus anthracis) of the same compound?
Its MIC is 50 µg/mL.

And the zone of inhibition at 4 µg/disc [17]?
The zone of inhibition at 4 µg/disc was 11 mm.

What about the MIC [18] of the same compound?
The MIC was > 200 µg/mL.

And the MIC [19]?
Its MIC is > 200 µg/mL.
